Experimental findings from PubChem BioAssay AID256 (DTP/NCI, 2004) are described below.

Inconclusive results and toxic doses are left out.

The test system of this experiment is CD2F1 mice, L1210 leukemia ip, survival T/C. Description: NCI In Vivo Anticancer Drug Screen. Data for tumor model L1210 Leukemia (intraperitoneal) in CD2F1 (CDF1) mice. The note with it: higher = longer survival. Summed up: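 Vehicle-treated tumor-bearing mice served as controls (C) for compound-treated mice (T). Reported figure is T divided by C.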
Setting [1] is: endpoint: mean survival time, dose: 100.0 mg/kg/injection, schedule: Q04DX002 (ip), vehicle: saline with Tween-80.
Where [2] appears, read: endpoint: mean survival time, dose: 25.0 mg/kg/injection, schedule: Q04DX002 (ip), vehicle: saline with Tween-80.

Consider `O=C(CCBr)N1CCN(C(=O)CCBr)CC1`, for which the T/C was 100 % of control (endpoint: mean survival time, dose: 4.0 mg/kg/injection, schedule: Q03HX016 (ip), vehicle: saline); 100 % of control (endpoint: mean survival time, dose: 4.0 mg/kg/injection, schedule: Q03HX024 (ip), vehicle: saline); 101 % of control (endpoint: mean survival time, dose: 8.0 mg/kg/injection, schedule: Q03HX016 (ip), vehicle: saline); 93 % of control (endpoint: mean survival time, dose: 8.0 mg/kg/injection, schedule: Q03HX016 (oral), vehicle: saline); 110 % of control (endpoint: mean survival time, dose: 8.0 mg/kg/injection, schedule: Q03HX024 (ip), vehicle: saline); 119 % of control (endpoint: mean survival time, dose: 8.0 mg/kg/injection, schedule: Q03HX024 (oral), vehicle: saline). Also, the T/C was 120 % of control (endpoint: mean survival time, dose: 16.0 mg/kg/injection, schedule: Q03HX008 (ip), vehicle: saline); 124 % of control (endpoint: mean survival time, dose: 16.0 mg/kg/injection, schedule: Q03HX008 (oral), vehicle: saline); 117 % of control (endpoint: mean survival time, dose: 16.0 mg/kg/injection, schedule: Q03HX016 (ip), vehicle: saline); 100 % of control (endpoint: mean survival time, dose: 16.0 mg/kg/injection, schedule: Q03HX016 (oral), vehicle: saline); 172 % of control (endpoint: mean survival time, dose: 16.0 mg/kg/injection, schedule: Q03HX024 (ip), vehicle: saline); 123 % of control (endpoint: mean survival time, dose: 16.0 mg/kg/injection, schedule: Q03HX024 (oral), vehicle: saline). Further, the T/C reads like this: (endpoint: mean survival time, dose: 25.0 mg/kg/injection, schedule: Q01DX009 (ip), vehicle: saline) 124 % of control; (endpoint: mean survival time, dose: 25.0 mg/kg/injection, schedule: Q03DX003 (ip), vehicle: saline) 115 % of control; (endpoint: mean survival time, dose: 25.0 mg/kg/injection, schedule: Q04DX003 (ip), vehicle: saline) 108 % of control; (endpoint: mean survival time, dose: 32.0 mg/kg/injection, schedule: Q01DX009 (ip), vehicle: saline) 161 % of control; (endpoint: mean survival time, dose: 32.0 mg/kg/injection, schedule: Q01DX009 (oral), vehicle: saline) 150 % of control; (endpoint: mean survival time, dose: 32.0 mg/kg/injection, schedule: Q03HX008 (ip), vehicle: saline) 160 % of control. Besides, the T/C by setting is: (endpoint: mean survival time, dose: 32.0 mg/kg/injection, schedule: Q03HX008 (oral), vehicle: saline) 151 % of control; (endpoint: mean survival time, dose: 32.0 mg/kg/injection, schedule: Q03HX016 (ip), vehicle: saline) 207 % of control; (endpoint: mean survival time, dose: 32.0 mg/kg/injection, schedule: Q03HX016 (oral), vehicle: saline) 162 % of control; (endpoint: mean survival time, dose: 32.0 mg/kg/injection, schedule: Q03HX024 (ip), vehicle: saline) 101 % of control; (endpoint: mean survival time, dose: 32.0 mg/kg/injection, schedule: Q03HX024 (oral), vehicle: saline) 94 % of control; (endpoint: mean survival time, dose: 32.0 mg/kg/injection, schedule: Q04DX003 (ip), vehicle: saline) 118 % of control. The T/C by setting is: (endpoint: mean survival time, dose: 32.0 mg/kg/injection, schedule: Q08DX002 (ip), vehicle: saline) 98 % of control; (endpoint: mean survival time, dose: 50.0 mg/kg/injection, schedule: Q03DX003 (ip), vehicle: saline) 124 % of control; (endpoint: mean survival time, dose: 50.0 mg/kg/injection, schedule: Q04DX003 (ip), vehicle: saline) 123 % of control; (endpoint: mean survival time, dose: 64.0 mg/kg/injection, schedule: Q01DX009 (ip), vehicle: saline) 156 % of control; (endpoint: mean survival time, dose: 64.0 mg/kg/injection, schedule: Q01DX009 (oral), vehicle: saline) 122 % of control; (endpoint: mean survival time, dose: 64.0 mg/kg/injection, schedule: Q04DX003 (ip), vehicle: saline) 162 % of control. Besides, the T/C (endpoint: mean survival time, dose: 64.0 mg/kg/injection, schedule: Q08DX002 (ip), vehicle: saline) was 115 % of control; the T/C (endpoint: mean survival time, dose: 64.0 mg/kg/injection, schedule: Q08DX002 (oral), vehicle: saline) was 109 % of control; the T/C (endpoint: mean survival time, dose: 100.0 mg/kg/injection, schedule: Q01DX007 (ip), vehicle: saline) is 120 % of control; the T/C (endpoint: mean survival time, dose: 100.0 mg/kg/injection, schedule: Q03DX003 (ip), vehicle: saline) is 167 % of control; the T/C (endpoint: mean survival time, dose: 128.0 mg/kg/injection, schedule: Q01DX001 (oral), vehicle: saline) was 150 % of control; the T/C (endpoint: mean survival time, dose: 128.0 mg/kg/injection, schedule: Q01DX009 (oral), vehicle: saline) was 105 % of control. Further, the T/C is 176 % of control (endpoint: mean survival time, dose: 128.0 mg/kg/injection, schedule: Q04DX003 (ip), vehicle: saline); 157 % of control (endpoint: mean survival time, dose: 128.0 mg/kg/injection, schedule: Q04DX003 (oral), vehicle: saline); 167 % of control (endpoint: mean survival time, dose: 128.0 mg/kg/injection, schedule: Q08DX002 (ip), vehicle: saline); 157 % of control (endpoint: mean survival time, dose: 256.0 mg/kg/injection, schedule: Q01DX001 (ip), vehicle: saline); 88 % of control (endpoint: mean survival time, dose: 256.0 mg/kg/injection, schedule: Q01DX009 (oral), vehicle: saline); 194 % of control (endpoint: mean survival time, dose: 256.0 mg/kg/injection, schedule: Q08DX002 (ip), vehicle: saline). Further, the T/C by setting is: (endpoint: mean survival time, dose: 256.0 mg/kg/injection, schedule: Q08DX002 (oral), vehicle: saline) 156 % of control; (endpoint: mean survival time, dose: 512.0 mg/kg/injection, schedule: Q08DX002 (oral), vehicle: saline) 156 % of control.
Consider `Nc1ncnc(N)c1N`, for which, where the note is “endpoint: mean survival time, dose: 100.0 mg/kg/injection, schedule: Q01DX009 (ip), vehicle: saline with Tween-80”, the T/C is 112 % of control.
Consider `CCOC(=O)/N=C/N(C)C`, for which the T/C is, setting by setting: (endpoint: mean survival time, dose: 100.0 mg/kg/injection, schedule: Q01DX001 (ip), vehicle: saline) 100 % of control; (endpoint: mean survival time, dose: 200.0 mg/kg/injection, schedule: Q01DX001 (ip), vehicle: saline) 109 % of control; (endpoint: mean survival time, dose: 400.0 mg/kg/injection, schedule: Q01DX001 (ip), vehicle: saline) 103 % of control; (endpoint: median survival time, dose: 25.0 mg/kg/injection, schedule: Q04DX003 (ip), vehicle: saline with Tween-80) 100 % of control; (endpoint: median survival time, dose: 50.0 mg/kg/injection, schedule: Q04DX003 (ip), vehicle: saline with Tween-80) 100 % of control; (endpoint: median survival time, dose: 100.0 mg/kg/injection, schedule: Q04DX003 (ip), vehicle: saline with Tween-80) 100 % of control.
Regarding `NC(=O)c1ccccc1CO`, the T/C is 102 % of control under setting [1]; 98 % of control (endpoint: mean survival time, dose: 200.0 mg/kg/injection, schedule: Q04DX002 (ip), vehicle: saline with Tween-80); 98 % of control (endpoint: mean survival time, dose: 400.0 mg/kg/injection, schedule: Q04DX002 (ip), vehicle: saline with Tween-80).
`COc1ccccc1N=Nc1c(O)n(-c2ccccc2OC)c(=S)n(-c2ccc(Br)cc2)c1=O`: the T/C is 100 % of control under setting [2]; 100 % of control (endpoint: mean survival time, dose: 50.0 mg/kg/injection, schedule: Q04DX002 (ip), vehicle: saline with Tween-80); 95 % of control under setting [1].
Turning to `CC1(C)CC(NC(=O)CSc2ncnc3nc[nH]c23)CC(C)(C)N1O`, the T/C (endpoint: mean survival time, dose: 12.5 mg/kg/injection, schedule: Q01DX005 (ip), vehicle: saline) is 106 % of control; the T/C (endpoint: mean survival time, dose: 25.0 mg/kg/injection, schedule: Q01DX005 (ip), vehicle: saline) is 98 % of control; the T/C (endpoint: mean survival time, dose: 50.0 mg/kg/injection, schedule: Q01DX005 (ip), vehicle: saline) was 98 % of control; the T/C (endpoint: mean survival time, dose: 100.0 mg/kg/injection, schedule: Q01DX005 (ip), vehicle: saline) is 98 % of control; the T/C (endpoint: mean survival time, dose: 200.0 mg/kg/injection, schedule: Q01DX005 (ip), vehicle: saline) is 98 % of control.
As for `NC(CO)CO`, the T/C is, setting by setting: (endpoint: mean survival time, dose: 100.0 mg/kg/injection, schedule: Q04DX003 (ip), vehicle: saline) 98 % of control; (endpoint: mean survival time, dose: 200.0 mg/kg/injection, schedule: Q04DX003 (ip), vehicle: saline) 95 % of control; (endpoint: mean survival time, dose: 400.0 mg/kg/injection, schedule: Q04DX003 (ip), vehicle: saline) 98 % of control.
`N#CSCc1ccc(O)c(C(=O)O)c1`: the T/C (endpoint: mean survival time, dose: 10.0 mg/kg/injection, schedule: Q01DX009 (ip), vehicle: saline with Tween-80) is 94 % of control; the T/C (endpoint: mean survival time, dose: 20.0 mg/kg/injection, schedule: Q01DX009 (ip), vehicle: saline with Tween-80) is 105 % of control; the T/C (endpoint: mean survival time, dose: 40.0 mg/kg/injection, schedule: Q01DX009 (ip), vehicle: saline with Tween-80) is 106 % of control.
`CCC(NC(N)=O)C(CC)NC(N)=O` (centres undefined): the T/C by setting is: (endpoint: median survival time, dose: 12.5 mg/kg/injection, schedule: Q01DX009 (ip), vehicle: saline with Tween-80) 97 % of control; (endpoint: median survival time, dose: 25.0 mg/kg/injection, schedule: Q01DX009 (ip), vehicle: saline with Tween-80) 96 % of control; (endpoint: median survival time, dose: 50.0 mg/kg/injection, schedule: Q01DX009 (ip), vehicle: saline with Tween-80) 90 % of control.
Take `Cc1cc(OCC2=NCCN2)c(C)c(C)c1Cl`: the T/C (endpoint: mean survival time, dose: 6.25 mg/kg/injection, schedule: Q04DX002 (ip), vehicle: saline with Tween-80) was 94 % of control; the T/C (endpoint: mean survival time, dose: 12.5 mg/kg/injection, schedule: Q04DX002 (ip), vehicle: saline with Tween-80) is 94 % of control; the T/C under setting [2] is 97 % of control.
